Where a name gives a salt, the structure may show the parent alone. Read-outs that look alike come from different tables or passages of the source.

Common to all, as to type: biochemical
Test [1] deals with T1, Human recombinant PDE2A (hPDE2A) (Homo sapiens, UniProt O00408).
T1 construct: His tag (inferred from metal chelate purification); made in house; host or cells: Sf9 insect cells (baculovirus)
In words: In vitro assay PDE2A (SPA, 3H-cGMP hydrolysis). The conditions noted are these: for Emax: read-out: hPDE2A Emax.

For test [2], the target named is T2, Human recombinant PDE3A (hPDE3A) (Homo sapiens, UniProt Q14432).
T2 construct: purchased Scottish Biomedical; host or cells: Sf9 insect cells
In words: In vitro assay PDE3A (SPA, 3H-cAMP hydrolysis).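 On Emax: the method names PDE3A and the table heading PDE3B.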 To be noted: for IC50: hPDE3B pIC50; for Emax: read-out: hPDE3B Emax, read-out: Emax. As to the method: Human recombinant PDE3A (hPDE3A) was supplied as a partially purified insect cell lysate by Scottish Biomedical, it was cloned from human brain and expressed in Sf9 cells. Tested compounds were dissolved and diluted in 100% DMSO to a concentration 100 fold of the final concentration in the assay. Compound dilutions (0.4 μl) were added in 384 well plates to 20 μl of incubation buffer (50 mM Tris pH 7.8, 8.3 mM MgCl2, 1.7 mM EGTA). 10 μl of hPDE3A enzyme in incubation buffer was added and the reaction was started by addition of 10 μl substrate to a final concentration of 0.4 μM cAMP and 2.4 μCi/ml [^3H]-cAMP. The reaction was incubated for 60 min at room temperature. […] After sedimentation of the beads during 30 min the radioactivity was measured in a Perkin Elmer Topcount scintillation counter and results were expressed as cpm. For blanc values the enzyme was omitted from the reaction and replaced by incubation buffer. Control values were obtained by addition of a final concentration of 1% DMSO instead of compound.

For test [3], the target named is T3, Human recombinant PDE10A (hPDE10A) (Homo sapiens, UniProt Q9Y233).
T3 construct: His tag (inferred from metal chelate purification); made in house; host or cells: Sf9 insect cells (baculovirus)
In words: In vitro assay PDE10A, human clone (SPA, 3H-cAMP hydrolysis). As to the method:
Rat recombinant PDE10A (rPDE10A2) was expressed in Sf9 cells using a recombinant rPDE10A baculovirus construct. […] Tested compounds were dissolved and diluted in 100% DMSO to a concentration 100 fold of the final concentration in the assay. Human recombinant PDE10A ([…]) was expressed in Sf9 cells using a recombinant hPDE10A baculovirus that was made and amplified in house. […] Compound dilutions (0.4 μl) were added in 384 well plates to 20 μl of incubation buffer (50 mM Tris pH 7.8, 8.3 mM MgCl2, 1.7 mM EGTA). 10 μl of rPDE10A or hPDE10A enzyme in incubation buffer was added and the reaction was started by addition of 10 μl substrate to a final concentration of 60 nM cAMP and 0.008 μCi ^3H-cAMP. The reaction was incubated for 60 minutes at room temperature. […] After sedimentation of the beads during 30 minutes the radioactivity was measured in a Perkin Elmer Topcount scintillation counter and results were expressed as cpm. For blanc values the enzyme was omitted from the reaction and replaced by incubation buffer. Control values were obtained by addition of a final concentration of 1% DMSO instead of compound.

Where [4] appears, read: human recombinant PDE2A, 10 μM cGMP substrate.
Setting [5] is: human recombinant PDE2A, 10 μM cGMP substrate, read-out: hPDE2A pIC50 (converted).
[6] abbreviates: read-out: hPDE2A pIC50 (converted).
[7] abbreviates: human clone (h), default, read-out: hPDE10A2 Emax.
[8] abbreviates: human clone (h), default, read-out: hPDE10A2 pIC50 (converted).
Where [9] appears, read: human clone by default (no (r) mark), read-out: hPDE10A2 or rPDE10A2 Emax.
Setting [10] is: human clone by default (no (r) mark), read-out: hPDE10A2 or rPDE10A2 pIC50 (converted).
Where [11] appears, read: hPDE2A pIC50, human recombinant PDE2A, 10 μM cGMP substrate.

T2 sequence (Q14432 whole entry): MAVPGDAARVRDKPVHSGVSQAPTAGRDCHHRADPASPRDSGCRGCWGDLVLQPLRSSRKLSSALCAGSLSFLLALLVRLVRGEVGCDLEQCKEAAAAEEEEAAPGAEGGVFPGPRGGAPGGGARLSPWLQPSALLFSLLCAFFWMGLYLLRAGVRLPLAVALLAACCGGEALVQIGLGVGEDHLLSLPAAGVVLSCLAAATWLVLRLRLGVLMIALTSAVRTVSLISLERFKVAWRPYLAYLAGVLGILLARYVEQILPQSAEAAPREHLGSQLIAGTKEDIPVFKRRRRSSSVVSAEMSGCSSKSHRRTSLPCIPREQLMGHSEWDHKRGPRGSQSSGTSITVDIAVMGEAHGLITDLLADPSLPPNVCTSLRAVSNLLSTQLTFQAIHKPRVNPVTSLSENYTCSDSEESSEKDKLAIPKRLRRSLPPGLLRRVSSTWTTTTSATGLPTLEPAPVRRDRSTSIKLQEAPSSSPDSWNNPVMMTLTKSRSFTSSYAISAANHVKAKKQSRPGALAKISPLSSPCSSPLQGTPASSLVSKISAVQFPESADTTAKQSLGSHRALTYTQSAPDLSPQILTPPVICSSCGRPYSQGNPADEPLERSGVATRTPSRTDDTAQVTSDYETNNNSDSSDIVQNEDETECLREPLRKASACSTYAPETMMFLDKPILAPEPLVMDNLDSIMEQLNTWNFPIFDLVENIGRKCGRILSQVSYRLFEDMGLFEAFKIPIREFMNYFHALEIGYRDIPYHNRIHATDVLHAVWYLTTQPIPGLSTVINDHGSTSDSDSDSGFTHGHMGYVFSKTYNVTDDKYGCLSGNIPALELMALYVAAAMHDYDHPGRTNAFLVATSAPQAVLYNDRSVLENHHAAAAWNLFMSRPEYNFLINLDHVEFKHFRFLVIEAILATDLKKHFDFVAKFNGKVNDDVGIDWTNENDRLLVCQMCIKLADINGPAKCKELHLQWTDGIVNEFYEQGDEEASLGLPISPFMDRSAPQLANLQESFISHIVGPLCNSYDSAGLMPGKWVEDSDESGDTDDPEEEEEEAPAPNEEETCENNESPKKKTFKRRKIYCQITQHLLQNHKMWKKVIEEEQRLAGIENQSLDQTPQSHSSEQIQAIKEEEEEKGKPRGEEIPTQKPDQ
T1 sequence (O00408 whole entry): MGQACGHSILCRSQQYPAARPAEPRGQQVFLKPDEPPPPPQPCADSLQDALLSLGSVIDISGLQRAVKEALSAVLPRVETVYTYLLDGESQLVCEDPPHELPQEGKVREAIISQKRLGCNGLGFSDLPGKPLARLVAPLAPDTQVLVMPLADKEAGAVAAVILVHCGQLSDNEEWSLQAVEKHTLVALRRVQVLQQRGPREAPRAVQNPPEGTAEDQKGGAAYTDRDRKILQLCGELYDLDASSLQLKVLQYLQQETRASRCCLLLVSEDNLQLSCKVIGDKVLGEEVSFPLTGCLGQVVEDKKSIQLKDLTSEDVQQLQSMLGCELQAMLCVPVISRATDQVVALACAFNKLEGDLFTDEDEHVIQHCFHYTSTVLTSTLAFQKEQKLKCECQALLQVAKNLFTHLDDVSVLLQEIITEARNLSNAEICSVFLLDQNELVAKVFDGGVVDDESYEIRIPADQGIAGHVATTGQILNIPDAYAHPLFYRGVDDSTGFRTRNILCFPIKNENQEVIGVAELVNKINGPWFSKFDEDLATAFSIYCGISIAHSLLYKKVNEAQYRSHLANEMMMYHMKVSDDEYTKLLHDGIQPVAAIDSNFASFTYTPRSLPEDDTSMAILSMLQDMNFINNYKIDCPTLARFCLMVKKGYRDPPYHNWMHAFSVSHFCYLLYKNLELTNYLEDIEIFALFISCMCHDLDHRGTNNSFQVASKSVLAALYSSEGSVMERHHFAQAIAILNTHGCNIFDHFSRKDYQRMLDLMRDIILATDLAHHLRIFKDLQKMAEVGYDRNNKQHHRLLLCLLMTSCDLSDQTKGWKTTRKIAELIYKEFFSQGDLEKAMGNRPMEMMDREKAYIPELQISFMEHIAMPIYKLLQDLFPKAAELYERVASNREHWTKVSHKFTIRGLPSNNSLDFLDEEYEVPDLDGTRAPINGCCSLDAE
T3 sequence (Q9Y233 267-1055): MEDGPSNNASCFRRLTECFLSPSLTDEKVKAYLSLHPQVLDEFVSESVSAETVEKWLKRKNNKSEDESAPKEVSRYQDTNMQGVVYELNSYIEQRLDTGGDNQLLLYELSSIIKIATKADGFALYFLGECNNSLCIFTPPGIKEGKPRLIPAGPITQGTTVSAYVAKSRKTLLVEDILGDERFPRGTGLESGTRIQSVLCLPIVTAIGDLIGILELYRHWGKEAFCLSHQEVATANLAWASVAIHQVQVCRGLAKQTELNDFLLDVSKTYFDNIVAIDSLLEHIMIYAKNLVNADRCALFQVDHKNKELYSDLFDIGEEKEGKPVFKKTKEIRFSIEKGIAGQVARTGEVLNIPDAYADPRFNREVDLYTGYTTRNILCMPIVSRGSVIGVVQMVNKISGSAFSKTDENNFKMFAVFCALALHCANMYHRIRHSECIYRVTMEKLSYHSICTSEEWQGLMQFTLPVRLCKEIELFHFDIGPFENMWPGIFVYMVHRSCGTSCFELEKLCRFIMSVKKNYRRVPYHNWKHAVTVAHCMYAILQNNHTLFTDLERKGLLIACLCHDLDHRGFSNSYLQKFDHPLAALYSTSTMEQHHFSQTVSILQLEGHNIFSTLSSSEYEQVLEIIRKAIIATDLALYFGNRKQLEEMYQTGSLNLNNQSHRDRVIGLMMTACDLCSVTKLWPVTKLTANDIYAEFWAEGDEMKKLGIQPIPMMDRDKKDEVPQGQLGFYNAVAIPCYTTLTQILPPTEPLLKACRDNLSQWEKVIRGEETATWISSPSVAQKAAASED

Turning to `Cc1cc(C(=O)N2CC[C@H](C)[C@@H](c3cc(C#N)nc4ncnn34)C2)cc(C)n1` [Compound 26b], in test [1], the “hPDE2A Emax” value is listed as 98 and the “hPDE2A pIC50” value was 8.17. The “hPDE2A Emax” value in test [1] (human recombinant PDE2A) worked out at 98. In test [1] (setting [4]), the “hPDE2A pIC50” value came out at 8.17. For the same compound, the “hPDE3B Emax” value in test [2] came to 41. For the same compound, in test [3] (human clone (h), default), the “hPDE10A2 Emax” value turned out to be 95 and the “hPDE10A2 pIC50” value is recorded as 6.63.

`Cc1cc([C@@H]2CN(C(=O)c3nc4ccccc4o3)CC[C@H]2C)n2ncnc2n1` [Compound 21]: the IC50 is 4.57 nM in test [1] (setting [5]), 4.57 nM in test [1] (setting [6]), 1510 nM in test [2] (read-out: pIC50 (converted)) and 132 nM in test [3] (setting [8]). The maximal response (Emax) in test [1] (human recombinant PDE2A) worked out at 99%; in test [1] it was 99%; in test [2], 89%; in test [3] (setting [7]), 97%.

For the compound `CCCC[C@H]1CCN(C(=O)c2cc(C)nc(C)c2)C[C@H]1c1cc(C(F)F)nc2ncnn12` (mixture of isomers) [Compound 219], the IC50 is 138 nM in test [1] (setting [5]); 138 nM in test [1] (setting [6]); greater than 10000 nM in test [2] (read-out: pIC50 (converted)); 9120 nM in test [3] (setting [8]); 9120 nM in test [3] (setting [10]). The Emax in test [1] (human recombinant PDE2A) is 100%; in test [1], 100%; in test [2], 18%; in test [3] (setting [7]) it was 45%; in test [3] (setting [9]) it was 45%.

For `C[C@@H]1CCN(C(=O)c2ccc(F)cn2)C[C@H]1c1cc(C(F)F)nc2ncnn12` [Compound 251], the maximal effect (Emax) in test [1] is 98%; in test [2], 17%; in test [3] (setting [7]), 53%; in test [3] (setting [9]), 53%. For the same compound, the IC50 in test [1] (setting [6]) was 282 nM; in test [2] (read-out: pIC50 (converted)), greater than 10000 nM; in test [3] (setting [8]), 8710 nM; in test [3] (setting [10]) it was 8710 nM.

As to `C[C@@H]1CCN(C(=O)c2ccncn2)C[C@H]1c1cc(C(F)F)nc2ncnn12` [Compound 256], the Emax in test [1] came out at 97%; in test [2], 12%; in test [3] (setting [7]), 48%; in test [3] (setting [9]), 48%. The values for the IC50 in test [1] (setting [6]) and in test [2] (read-out: pIC50 (converted)) were 324 nM and greater than 10000 nM, respectively.

In the case of `Cc1c(C(=O)N2CC[C@@H](C)[C@H](c3cc(C(F)F)nc4ncnn34)C2)sc2ccccc12` [Compound 119], the IC50 in test [1] (setting [5]) is 1.74 nM; in test [1] (setting [6]), 1.74 nM; in test [2] (read-out: pIC50 (converted)), 61.7 nM; in test [3] (setting [8]), 77.6 nM. In addition, the Emax is 100% in test [1] (human recombinant PDE2A), 100% in test [1], 101% in test [2] and 99% in test [3] (setting [7]).

For `Cc1cc(C(=O)N2[C@H]3CC[C@H](c4cc(C(F)F)nc5ncnn45)[C@@H]2CC3)c(C)s1` [Compound 358], the results for the Emax in test [1], in test [2] and in test [3] (setting [9]) were 102%, 40% and 58%, respectively. The IC50 in test [1] (setting [6]) is 26.9 nM; in test [2] (read-out: pIC50 (converted)), greater than 10000 nM; in test [3] (setting [10]), 7940 nM.

In the case of `Cc1cc(C(=O)N2CC[C@H](C)[C@@H](c3cc(C)nc4ncnn34)C2)cc(C)n1` [Compound 1b], in test [1], the “hPDE2A Emax” value is given as 88 and the “hPDE2A pIC50” value was found to be 5.96. The “hPDE2A Emax” value in test [1] (human recombinant PDE2A) was 88. Further, in test [1] (setting [4]), the “hPDE2A pIC50” value is on record as 5.96. The “hPDE3B Emax” value in test [2] came out at 13. Besides, in test [3] (human clone (h), default), the “hPDE10A2 Emax” value is given as 50 and the “hPDE10A2 pIC50” value is 5.01.

Regarding `COCc1cc(C(=O)N2CC[C@@H](C)[C@H](c3cc(C(F)F)nc4ncnn34)C2)cc(C)n1` [Compound 288], the Emax was determined as 101% in test [1], 44% in test [2] and 93% in test [3] (setting [9]). The IC50 is 2.69 nM in test [1] (setting [6]), greater than 10000 nM in test [2] (read-out: pIC50 (converted)) and 417 nM in test [3] (setting [10]).

Take `C[C@H]1CCN(C(=O)c2ccc3ncsc3c2)C[C@]1(F)c1cc(C(F)F)nc2ncnn12` [Compound 34]: the IC50 in test [1] (setting [5]) was 1950 nM; in test [1] (setting [6]), 1950 nM; in test [2] (read-out: pIC50 (converted)), greater than 10000 nM; in test [3] (setting [8]), greater than 10000 nM. For the same compound, the Emax in test [1] (human recombinant PDE2A) came to 88%; in test [1], 88%; in test [2], 31%; in test [3] (setting [7]) it was 28%.

For the compound `COc1nc(C)c(C(=O)N2CC[C@@H](C)[C@H](c3cc(C(F)F)nc4ncnn34)C2)s1` [Compound 185], the figures for the Emax in test [1], in test [2] and in test [3] (setting [7]) were 98%, 79% and 87%, respectively. Besides, the IC50 is 21.9 nM in test [1] (setting [6]), 3310 nM in test [2] (read-out: pIC50 (converted)) and 1200 nM in test [3] (setting [8]).

Turning to `Cc1cc(C(=O)N2[C@H]3CC[C@H](c4cc(C(F)F)nc5ncnn45)[C@@H]2CC3)c(F)c(C)n1` [Compound 400], the IC50 was 22.4 nM in test [1] (hPDE2A pIC50); greater than 10000 nM in test [2]; greater than 10000 nM in test [3] (hPDE10A2 or rPDE10A2 pIC50, human clone by default (no (r) mark)). The results for the Emax in test [1], in test [2] and in test [3] (setting [9]) were 99%, 16% and 41%, respectively.

Consider `C[C@@H]1CCN(C(=O)c2cccc3c2OC(F)(F)O3)C[C@H]1c1cc(C(F)F)nc2ncnn12` [Compound 63], for which the IC50 in test [1] (setting [5]) was 7.24 nM; in test [1] (setting [6]), 7.24 nM; in test [2] (read-out: pIC50 (converted)), 6920 nM; in test [3] (setting [8]), 871 nM. The Emax in test [1] (human recombinant PDE2A) came out at 100%; in test [1], 100%; in test [2] it was 60%; in test [3] (setting [7]) it was 89%.

In the case of `C[C@@H]1CCN(C(=O)c2cccc3c2ncn3C)C[C@H]1c1cc(C(F)F)nc2ncnn12` [Compound 178], the IC50 in test [1] (setting [5]) was 13.5 nM; in test [1] (setting [6]) it was 13.5 nM; in test [2] (read-out: pIC50 (converted)), 7410 nM; in test [3] (setting [8]), 794 nM. The Emax in test [1] (human recombinant PDE2A) was found to be 101%; in test [1], 101%; in test [2] it was 62%; in test [3] (setting [7]), 92%.

With `Cn1cnc2cc(C(=O)N3[C@H]4CC[C@H](c5cc(C(F)F)nc6ncnn56)[C@@H]3CC4)ccc21` [Compound 379], the Emax was determined as 102% in test [1], 67% in test [2] and 87% in test [3] (setting [9]). For the same compound, the figures for the IC50 in test [1] (setting [6]), in test [2] (read-out: pIC50 (converted)) and in test [3] (setting [10]) were 11.2 nM, 5250 nM and 1620 nM, respectively.

For the compound `Cc1cc([C@H]2CN(C(=O)c3cc(C)c(F)c(C)c3)CC[C@@H]2C)n2ncnc2n1` [Compound 217], the IC50 is 562 nM in test [1] (hPDE2A pIC50); 562 nM in test [1] (setting [11]); greater than 10000 nM in test [2] (read-out: pIC50 (converted)); 4790 nM in test [3] (setting [8]); 4790 nM in test [3] (setting [10]). The Emax in test [1] came to 99%; in test [2], 37%; in test [3] (setting [7]), 72%; in test [3] (setting [9]) it was 72%.

For `CC(C)c1n[nH]cc1C(=O)N1CC[C@@H](C)[C@H](c2cc(C(F)F)nc3ncnn23)C1` [Compound 61], the IC50 in test [1] (setting [5]) is 4.37 nM; in test [1] (setting [6]), 4.37 nM; in test [2] (read-out: pIC50 (converted)), greater than 10000 nM; in test [3] (setting [8]) it was 457 nM. The Emax in test [1] (human recombinant PDE2A) worked out at 101%; in test [1] it was 101%; in test [2], 45%; in test [3] (setting [7]) it was 92%.

As for `Cc1cc([C@@H]2CN(C(=O)c3ccnc(Cl)c3F)CC[C@H]2C)n2ncnc2n1` [Compound 11], the IC50 in test [1] (setting [5]) is 22.9 nM; in test [1] (setting [6]), 22.9 nM; in test [2] (read-out: pIC50 (converted)), 4790 nM; in test [3] (setting [8]) it was 372 nM. The Emax was 100% in test [1] (human recombinant PDE2A), 100% in test [1], 69% in test [2] and 95% in test [3] (setting [7]).

Regarding `Cc1cc(C(=O)N2CC[C@H](C)[C@@H](c3cc(C(F)F)nc4ncnn34)C2)cc(C)n1` [220 (•HCl)], the IC50 is 977 nM in test [1] (setting [11]) and greater than 10000 nM in test [3] (setting [8]). The Emax in test [1] amounted to 54%; in test [3] (setting [7]) it was 27%.
